Molecules are shown by their SMILES. Like-named read-outs stand apart in the source and are kept apart here.

These results are taken from patent publication US20260245700A1, “METHOD FOR GIVING A RECOMMENDATION ON THE DIETARY ENERGY OF A POULTRY DIET” (Evonik Operations GmbH, priority 2023, published 2026).

For data set [1] the following is noted: Vranes et al. 2017; relatively stable during pelleting or extruding; cited from earlier work.
In the next data set the test system is broiler chickens. The settings on record: cited from earlier work.
Data set [2] concerns broilers. The settings on record: EFSA 2009; Tossenberger et al. 2016; cited from earlier work.
Data set [3] relates to broilers. Particulars: reduced dietary energy content plus GAA added to the feed; cited from earlier work.
The test system of data set [4] is broilers. The settings on record: linear regression, relative scale, control = 100%, cited from earlier work.
The subject of data set [5] is broilers. The data set can be described thus: Trials in which GAA compensates dietary energy reduction (energy-sparing value). The class given is in vivo. The source says: Reduction of dietary energy content and adding GAA to the feed restored broiler performance, which supports this conclusion (Malins et al., 2017; Mousavi S. N., Afsar A., Lotfollahian H. (2013) Effects of guanidinoacetic acid supplementation to broiler diets with varying energy contents, Journal of Applied Poultry Research, Volume 22, Issue 1, 2013, Pages 47-54, ISSN 1056-6171, https://doi.org/10.3382/japr.2012-00575; Heger, J., J. Zelenka, V. Machander, C. Cruz, M. Lestak, and D. Hampel. (2014) “Effects of Guanidinoacetic Acid Supplementation to Broiler Diets with Varying Energy Content.” Acta Universitatis Agriculturae Silviculturae Mendelianae Brunensis 62: 477-485. doi:10.11118/actaun201462030477; Abudabos, A. M., F. Saleh, A. Lemme, and H. A. H. Zakaria (2014) “The Relationship between Guanidino Acetic Acid and Metabolisable Energy Level of Diets on Performance of Broiler Chickens.” Italian Journal of Animal Science 13: 548-556. doi:10.4081/ijas.2014.3269).
The energy reduction level as well as the GAA supplementation rate was not always the same in trails in which GAA was used to compensate for energy reduction. In most trials dietary energy level of a standard diet was reduced by 50 kcal/kg feed and 0.06% GAA was supplemented to maintain bird performance. This would be equivalent to an energy-sparing value of 83.333 kcal/kg of GAA. However, considering all 20 identified independent trials in which GAA was used to compensate for dietary energy reduction, a wide range of energy-sparing values from 41.667 to 568.333 kcal/kg was tested. […] It can be predicted that an energy-sparing value of 163.889 kcal/kg GAA maintains BWG of the birds, whereas there is still a small improvement for FCR. For FCR, it was found out that even an energy-sparing value of 197.222 kcal/kg GAA maintains performance.

Data set [6] relates to broilers. The settings on record: GAA supplemented in broiler diets, compared to non-supplemented diets, asymptotic; cited from earlier work.

Turning to `N=C(N)NCC(=O)O` [GAA, Guanidinoacetic acid], the thermal stability entry in data set [1] is reported as “high”. In addition, the replacement efficiency with broiler chickens (1.7 g/kg L-ARG compensated by 1.2 g/kg GAA (Dilger et al. 2013)) was 142%. Also, the “circulatory ARG levels” value in the data set on broiler chickens (birds fed ARG-deficient diets (DeGroot et al. 2018)) is “increased”. Moreover, the L-ARG compensated in the data set with broiler chickens (by 1.2 g/kg GAA (Dilger et al. 2013)) was 1.7 g/kg. Also, in the data set on broiler chickens (very ARG-deficient diet, at 1.2 g/kg supplemental GAA (Dilger et al. 2013)), the “supplemental L-ARG needed to reach a given feed conversion ratio” value is reported as 2.1 g/kg. The ARG-sparing effect with broiler chickens (very deficient ARG diets (Dilger et al. 2013)) is recorded as 143%. Moreover, the bioavailability result with broilers [2] was “high”. Further, the broiler performance result with broilers [3] was “restored”. The FCR improvement in the data set on broilers [4] (GAA dose 0.6 g/kg) is reported as 4.5 points; in the data set with broilers [4] (GAA dose 1.2 g/kg), 8.8 points. Moreover, in the data set on broilers [5] (from 20 independent trials), the “energy-sparing value that maintains performance for FCR” value came to 197.222 kcal/kg GAA. Further, the “energy GAA can compensate (energy-sparing value)” value with broilers [5] (overall, 20 independent trials) is recorded as “more than 83.333 kcal/kg”. For the same molecule, the “energy-sparing value that maintains BWG” value in the data set with broilers [5] (predicted from 20 independent trials, still a small improvement for FCR) was 163.889 kcal/kg GAA. Further, the “increase of muscle CREA, maximum” value in the data set with broilers [6] is recorded as at most 29%.
